The values below come from patent US20120245137A1 (Zalicus Pharmaceuticals Ltd., priority 2009, published 2012).

pIC50: −log10 of the molar value.

The target in experiment [1] is human α1H T-type channels (Homo sapiens, UniProt O95180). Briefly: T-type calcium channel block, whole cell patch clamp, α1H. The class given is cell-based. The settings on record: HEK cells stably expressing human α1H; mainly non-inactivated protocol; values above 10,000 nM represented as 10000. Put shortly: (§1)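 Read-out: current block in whole-cell patch clamp of HEK 293 cells stably expressing human α1G or α1H subunits. Compounds were perfused locally in external solution (0.1-0.01% DMSO) under resting and inactivating voltage protocols.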
Sequence of human α1H T-type channels (O95180 whole entry, the tested form may be a part): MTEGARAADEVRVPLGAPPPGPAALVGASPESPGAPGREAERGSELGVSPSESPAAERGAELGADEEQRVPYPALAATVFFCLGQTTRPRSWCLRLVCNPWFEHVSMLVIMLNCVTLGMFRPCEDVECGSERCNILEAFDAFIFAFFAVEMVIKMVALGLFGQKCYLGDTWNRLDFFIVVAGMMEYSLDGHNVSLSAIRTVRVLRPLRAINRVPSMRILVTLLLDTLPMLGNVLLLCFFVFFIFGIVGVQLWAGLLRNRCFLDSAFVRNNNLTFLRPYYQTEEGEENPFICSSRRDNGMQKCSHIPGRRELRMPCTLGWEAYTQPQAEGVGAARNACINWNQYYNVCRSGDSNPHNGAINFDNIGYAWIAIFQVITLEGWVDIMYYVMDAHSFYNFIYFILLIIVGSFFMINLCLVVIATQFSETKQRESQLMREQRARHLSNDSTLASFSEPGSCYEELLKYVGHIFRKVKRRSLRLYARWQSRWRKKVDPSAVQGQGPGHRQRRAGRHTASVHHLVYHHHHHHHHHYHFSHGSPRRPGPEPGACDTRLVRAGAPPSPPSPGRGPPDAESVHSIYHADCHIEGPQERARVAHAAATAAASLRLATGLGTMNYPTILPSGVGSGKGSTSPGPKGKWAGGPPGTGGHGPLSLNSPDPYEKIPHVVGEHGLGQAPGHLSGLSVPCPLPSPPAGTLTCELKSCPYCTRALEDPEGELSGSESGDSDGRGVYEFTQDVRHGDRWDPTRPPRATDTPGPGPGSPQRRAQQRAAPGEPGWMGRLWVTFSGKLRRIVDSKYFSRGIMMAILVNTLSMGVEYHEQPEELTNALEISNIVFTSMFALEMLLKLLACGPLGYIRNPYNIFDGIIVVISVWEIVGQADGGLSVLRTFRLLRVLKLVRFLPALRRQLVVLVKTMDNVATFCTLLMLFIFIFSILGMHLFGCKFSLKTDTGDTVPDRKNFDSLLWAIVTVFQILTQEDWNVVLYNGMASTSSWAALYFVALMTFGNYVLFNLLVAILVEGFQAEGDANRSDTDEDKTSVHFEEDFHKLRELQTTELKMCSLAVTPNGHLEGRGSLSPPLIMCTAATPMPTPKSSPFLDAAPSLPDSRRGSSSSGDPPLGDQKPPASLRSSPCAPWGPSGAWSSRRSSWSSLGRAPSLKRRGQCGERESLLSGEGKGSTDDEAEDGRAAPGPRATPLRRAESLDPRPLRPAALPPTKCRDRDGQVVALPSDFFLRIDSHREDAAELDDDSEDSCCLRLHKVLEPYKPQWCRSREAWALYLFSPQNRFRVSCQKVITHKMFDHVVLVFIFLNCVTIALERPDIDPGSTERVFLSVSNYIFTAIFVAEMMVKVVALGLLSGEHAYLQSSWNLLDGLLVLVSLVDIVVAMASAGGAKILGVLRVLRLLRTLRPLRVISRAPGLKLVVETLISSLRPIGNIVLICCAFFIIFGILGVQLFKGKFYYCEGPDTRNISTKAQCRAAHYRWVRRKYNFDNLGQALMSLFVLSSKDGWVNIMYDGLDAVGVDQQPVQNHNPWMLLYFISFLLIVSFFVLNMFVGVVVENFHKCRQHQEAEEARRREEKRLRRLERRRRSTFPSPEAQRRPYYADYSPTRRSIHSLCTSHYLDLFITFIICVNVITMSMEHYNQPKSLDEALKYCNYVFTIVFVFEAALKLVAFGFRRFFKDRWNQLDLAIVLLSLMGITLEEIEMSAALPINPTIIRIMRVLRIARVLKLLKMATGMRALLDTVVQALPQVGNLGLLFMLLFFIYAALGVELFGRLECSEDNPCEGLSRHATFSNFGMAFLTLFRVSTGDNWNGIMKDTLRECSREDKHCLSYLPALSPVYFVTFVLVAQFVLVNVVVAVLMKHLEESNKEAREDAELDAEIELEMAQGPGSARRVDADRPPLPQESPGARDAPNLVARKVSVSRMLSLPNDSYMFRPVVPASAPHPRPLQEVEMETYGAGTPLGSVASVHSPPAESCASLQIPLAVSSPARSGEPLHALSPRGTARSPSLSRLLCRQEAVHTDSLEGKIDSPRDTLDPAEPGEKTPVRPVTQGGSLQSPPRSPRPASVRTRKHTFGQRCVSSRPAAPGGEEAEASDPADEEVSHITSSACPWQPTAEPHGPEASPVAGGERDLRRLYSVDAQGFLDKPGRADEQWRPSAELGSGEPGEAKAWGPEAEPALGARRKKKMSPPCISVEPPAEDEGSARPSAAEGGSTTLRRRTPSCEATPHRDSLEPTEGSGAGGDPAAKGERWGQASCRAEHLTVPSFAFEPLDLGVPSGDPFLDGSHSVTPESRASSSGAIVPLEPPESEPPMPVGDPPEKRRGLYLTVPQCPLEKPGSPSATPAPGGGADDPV
A general note: In patch-clamp work, channel activity is measured electrically.

For experiment [2], the target named is human α1G T-type channels (Homo sapiens, UniProt O43497). As to the kind of experiment: T-type calcium channel block, whole cell patch clamp, α1G. It is filed as cell-based. The settings on record: HEK cells stably expressing human α1G; mainly non-inactivated protocol; values above 10,000 nM represented as 10000. The method, boiled down: as §1
Sequence of human α1G T-type channels (O43497 whole entry): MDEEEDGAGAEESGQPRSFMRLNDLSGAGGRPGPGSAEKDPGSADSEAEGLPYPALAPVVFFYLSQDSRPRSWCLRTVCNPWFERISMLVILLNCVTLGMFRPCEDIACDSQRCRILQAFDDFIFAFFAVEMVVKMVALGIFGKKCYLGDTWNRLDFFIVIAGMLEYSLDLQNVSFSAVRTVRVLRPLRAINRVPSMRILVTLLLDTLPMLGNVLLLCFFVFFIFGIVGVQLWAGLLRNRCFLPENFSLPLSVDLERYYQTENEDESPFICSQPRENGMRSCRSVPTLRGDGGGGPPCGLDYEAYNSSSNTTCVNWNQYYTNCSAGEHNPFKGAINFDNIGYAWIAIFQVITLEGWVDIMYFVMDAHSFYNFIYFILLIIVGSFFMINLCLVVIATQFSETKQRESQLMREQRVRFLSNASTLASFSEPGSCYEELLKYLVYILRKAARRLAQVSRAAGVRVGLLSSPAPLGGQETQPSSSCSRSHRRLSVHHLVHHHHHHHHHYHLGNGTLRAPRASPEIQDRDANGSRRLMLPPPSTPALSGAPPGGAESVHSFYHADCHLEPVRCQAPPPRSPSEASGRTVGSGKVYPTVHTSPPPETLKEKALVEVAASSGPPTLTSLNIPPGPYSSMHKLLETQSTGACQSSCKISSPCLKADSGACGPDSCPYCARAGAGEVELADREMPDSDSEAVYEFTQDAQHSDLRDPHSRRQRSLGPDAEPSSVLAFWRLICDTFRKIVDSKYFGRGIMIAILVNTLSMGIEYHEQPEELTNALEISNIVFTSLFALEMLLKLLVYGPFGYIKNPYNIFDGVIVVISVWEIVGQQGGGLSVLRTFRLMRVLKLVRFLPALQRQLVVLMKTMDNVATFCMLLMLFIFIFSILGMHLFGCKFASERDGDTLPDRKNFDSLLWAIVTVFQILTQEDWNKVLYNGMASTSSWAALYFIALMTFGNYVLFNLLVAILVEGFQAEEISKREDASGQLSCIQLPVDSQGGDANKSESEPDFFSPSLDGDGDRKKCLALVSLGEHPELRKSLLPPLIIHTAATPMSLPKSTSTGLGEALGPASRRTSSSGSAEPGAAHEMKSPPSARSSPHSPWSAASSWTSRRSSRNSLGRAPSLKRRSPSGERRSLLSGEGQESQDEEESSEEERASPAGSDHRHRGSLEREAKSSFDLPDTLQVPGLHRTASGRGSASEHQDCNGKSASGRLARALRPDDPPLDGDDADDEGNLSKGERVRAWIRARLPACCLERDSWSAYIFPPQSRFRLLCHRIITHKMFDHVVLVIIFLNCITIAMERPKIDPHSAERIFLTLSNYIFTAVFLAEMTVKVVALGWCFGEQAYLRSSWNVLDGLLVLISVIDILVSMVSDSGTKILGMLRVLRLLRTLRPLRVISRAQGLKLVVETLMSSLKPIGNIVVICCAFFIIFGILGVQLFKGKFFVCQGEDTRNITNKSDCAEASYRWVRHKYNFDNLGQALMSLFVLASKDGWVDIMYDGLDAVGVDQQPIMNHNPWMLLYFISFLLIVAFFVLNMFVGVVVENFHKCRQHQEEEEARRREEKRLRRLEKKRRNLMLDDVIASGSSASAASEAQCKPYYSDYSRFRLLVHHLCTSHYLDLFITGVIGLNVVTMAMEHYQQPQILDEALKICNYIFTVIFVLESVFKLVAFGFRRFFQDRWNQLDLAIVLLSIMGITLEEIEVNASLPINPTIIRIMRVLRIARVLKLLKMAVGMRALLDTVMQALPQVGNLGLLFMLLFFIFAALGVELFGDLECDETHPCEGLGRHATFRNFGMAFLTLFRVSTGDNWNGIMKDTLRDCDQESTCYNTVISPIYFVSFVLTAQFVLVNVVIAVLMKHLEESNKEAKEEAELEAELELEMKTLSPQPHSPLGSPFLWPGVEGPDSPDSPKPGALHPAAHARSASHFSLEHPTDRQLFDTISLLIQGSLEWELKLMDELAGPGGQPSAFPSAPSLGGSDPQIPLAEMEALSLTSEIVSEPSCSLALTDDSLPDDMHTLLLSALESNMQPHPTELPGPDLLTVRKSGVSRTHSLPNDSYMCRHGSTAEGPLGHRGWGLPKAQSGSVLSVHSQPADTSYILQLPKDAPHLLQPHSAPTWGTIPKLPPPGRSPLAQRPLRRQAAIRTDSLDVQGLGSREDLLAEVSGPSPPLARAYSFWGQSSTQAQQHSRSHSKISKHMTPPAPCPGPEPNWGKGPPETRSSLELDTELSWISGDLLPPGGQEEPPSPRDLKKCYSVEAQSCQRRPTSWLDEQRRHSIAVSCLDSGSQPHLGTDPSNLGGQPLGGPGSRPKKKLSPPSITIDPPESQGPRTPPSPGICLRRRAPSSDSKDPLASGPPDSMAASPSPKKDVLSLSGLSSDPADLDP

As usually defined, the pIC50 is −log10 of the IC50, conventionally taken in molar units. Turning to `CC(C)(CNC(=O)c1ccc(C(F)(F)F)cn1)S(=O)(=O)c1cccc(C(F)(F)F)c1` [Compound 476, N-(2-methyl-2-(3-(trifluoromethyl)phenylsulfonyl)propyl)-5-(trifluoromethyl)picolinamide], the pIC50 in experiment [1] is 5.25; in experiment [2], 6.40.
In the same order, the values of `CC(C)(C)C(=O)Nc1ccncc1C(=O)NCC(C)(C)S(=O)(=O)c1cccc(C(F)(F)F)c1` [Compound 477, N-(2-methyl-2-(3-(trifluoromethyl)phenylsulfonyl)propyl)-4-pivalamidonicotinamide] are less than 5.00 and 6.27.
On to `CC(C)(CNC(=O)c1nc2cc(F)ccc2[nH]1)S(=O)(=O)c1cccc(C(F)(F)F)c1` [Compound 478, 5-fluoro-N-(2-methyl-2-(3-(trifluoromethyl)phenylsulfonyl)propyl)-1H-benzo[d]imidazole-2-carboxamide], for which the pIC50 in experiment [1] was 5.27; in experiment [2] it was 6.57.
The corresponding values for `CC(C)(CNC(=O)c1ccc(Cl)c(Cl)c1)S(=O)(=O)c1cccc(C(F)(F)F)c1` [Compound 479, 3,4-dichloro-N-(2-methyl-2-(3-(trifluoromethyl)phenylsulfonyl)propyl) benzamide] are 5.68 and 6.05.
In the same order, the values of `CC(C)(CNC(=O)c1ccc(Cl)cc1Cl)S(=O)(=O)c1cccc(C(F)(F)F)c1` [Compound 480, 2,4-dichloro-N-(2-methyl-2-(3-(trifluoromethyl)phenylsulfonyl)propyl) benzamide] are 5.26 and 6.14.
Consider `COc1c(C)cc(C(=O)NCC(C)(C)S(=O)(=O)c2cccc(C(F)(F)F)c2)cc1C` [Compound 481, 4-methoxy-3,5-dimethyl-N-(2-methyl-2-(3-(trifluoromethyl)phenylsulfonyl)propyl) benzamide], for which the pIC50 in experiment [1] is less than 5.00; in experiment [2] it was 6.14.
On to `CC(C)(CNC(=O)c1ccc(F)c(Cl)c1)S(=O)(=O)c1cccc(C(F)(F)F)c1` [Compound 482, 3-chloro-4-fluoro-N-(2-methyl-2-(3-(trifluoromethyl)phenylsulfonyl)propyl) benzamide], for which the pIC50 in experiment [1] is 5.43; in experiment [2], 6.02.
The corresponding values for `CC(C)(CNC(=O)c1ccc(OCC(F)(F)F)nc1)S(=O)(=O)c1cccc(C(F)(F)F)c1` [Compound 483, N-(2-methyl-2-(3-(trifluoromethyl)phenylsulfonyl)propyl)-6-(2,2,2-trifluoroethoxy) nicotinamide] are 5.41 and 6.05.
In the same order, the values of `CC(C)(C)c1cc(C(=O)NCC(C)(C)S(=O)(=O)c2cccc(C(F)(F)F)c2)ccn1` [Compound 484, 2-tert-butyl-N-(2-methyl-2-(3-(trifluoromethyl)phenylsulfonyl)propyl) isonicotinamide] are 5.17 and 6.28.
In the same order, the values of `CC(C)(CC(=O)Nc1ccc(Oc2ccc(F)cc2)cc1)S(=O)(=O)c1cccc(C(F)(F)F)c1` [Compound 486, N-(4-(4-fluorophenoxy)phenyl)-3-methyl-3-(3-(trifluoromethyl)phenylsulfonyl)butanamide] are 6.07 and 6.29.
Regarding `CC(C)(C(=O)Nc1ccc(Oc2ccccc2)cc1)S(=O)(=O)c1cccc(C(F)(F)F)c1` [Compound 487, 2-methyl-N-(4-phenoxyphenyl)-2-(3-(trifluoromethyl)phenylsulfonyl)propanamide], the values for the pIC50 in experiment [1] and in experiment [2] were 5.48 and 6.68, respectively.
The corresponding values for `CC(C)(C(=O)Nc1ccc(Oc2ccc(F)cc2)cc1)S(=O)(=O)c1cccc(C(F)(F)F)c1` [Compound 488, N-(4-(4-fluorophenoxy)phenyl)-2-methyl-2-(3-(trifluoromethyl)phenylsulfonyl)propanamide] are 5.54 and 6.54.
The corresponding values for `CC(C)(CNS(=O)(=O)c1cccc2nsnc12)S(=O)(=O)c1cccc(C(F)(F)F)c1` [Compound 490] are less than 5.00 and 6.34.
In the same order, the values of `CC(C)(CNS(=O)(=O)c1cccc2cccnc12)S(=O)(=O)c1cccc(C(F)(F)F)c1` [Compound 491, N-(2-methyl-2-(3-(trifluoromethyl)phenylsulfonyl)propyl)quinoline-8-sulfonamide] are less than 5.00 and 6.33.
`CC(C)(CNS(=O)(=O)c1ccc2c(c1)NC(=O)CO2)S(=O)(=O)c1cccc(C(F)(F)F)c1` [Compound 492, N-(2-methyl-2-(3-(trifluoromethyl)phenylsulfonyl)propyl)-3-oxo-3,4-dihydro-2H-benzo[b][1,4]oxazine-6-sulfonamide]: the pIC50 is 5.03 in experiment [1] and 6.23 in experiment [2].
In the same order, the values of `CC(C)(CNS(=O)(=O)c1ccccc1C(F)(F)F)S(=O)(=O)c1cccc(C(F)(F)F)c1` [Compound 494, N-(2-methyl-2-(3-(trifluoromethyl)phenylsulfonyl)propyl)-2-(trifluoromethyl) benzenesulfonamide] are 5.45 and 6.40.
The corresponding values for `CC(C)(CNS(=O)(=O)c1cccc(C(F)(F)F)c1)S(=O)(=O)c1cccc(C(F)(F)F)c1` [Compound 495, N-(2-methyl-2-(3-(trifluoromethyl)phenylsulfonyl)propyl)-3-(trifluoromethyl) benzenesulfonamide] are 5.69 and 6.72.
The corresponding values for `CC(C)(CNS(=O)(=O)c1ccc(OC(F)(F)F)cc1)S(=O)(=O)c1cccc(C(F)(F)F)c1` [Compound 496, N-(2-methyl-2-(3-(trifluoromethyl)phenylsulfonyl)propyl)-4-(trifluoromethoxy) benzenesulfonamide] are 6.46 and 6.77.
Turning to `CC(C)(CNS(=O)(=O)c1ccc(C(F)(F)F)cc1Cl)S(=O)(=O)c1cccc(C(F)(F)F)c1` [Compound 498, 2-chloro-N-(2-methyl-2-(3-(trifluoromethyl)phenylsulfonyl)propyl)-4-(trifluoromethyl) benzenesulfonamide], the pIC50 in experiment [1] was 5.86; in experiment [2], 6.59.
In the same order, the values of `CC(C)(C)c1ccc(S(=O)(=O)NCC(C)(C)S(=O)(=O)c2cccc(C(F)(F)F)c2)cc1` [Compound 499, 4-tert-butyl-N-(2-methyl-2-(3-(trifluoromethyl)phenylsulfonyl)propyl) benzenesulfonamide] are 6.00 and 7.05.
The corresponding values for `CC(C)(CNS(=O)(=O)c1ccc2c(c1)OCO2)S(=O)(=O)c1cccc(C(F)(F)F)c1` [Compound 500, N-(2-methyl-2-(3-(trifluoromethyl)phenylsulfonyl)propyl)benzo[d] [1,3]dioxole-5-sulfonamide] are 5.51 and 6.47.
Take `CC(C)(CNS(=O)(=O)c1ccc2ncsc2c1)S(=O)(=O)c1cccc(C(F)(F)F)c1` [Compound 501, N-(2-methyl-2-(3-(trifluoromethyl)phenylsulfonyl)propyl)benzo [d]thiazole-6-sulfonamide]: the pIC50 is less than 5.00 in experiment [1] and 6.38 in experiment [2].
In the same order, the values of `CC(C)(C)Oc1ccc(CNC(=O)C(C)(C)S(=O)(=O)c2cccc(C(F)(F)F)c2)cc1` [Compound 502, N-(4-tert-butoxybenzyl)-2-methyl-2-(3-(trifluoromethyl)phenylsulfonyl)propanamide] are 5.51 and 6.44.
The corresponding values for `CC(C)(C(=O)Nc1ccc(Oc2ccc(F)cc2)nc1)S(=O)(=O)c1cccc(C(F)(F)F)c1` [Compound 503, N-(6-(4-fluorophenoxy)pyridin-3-yl)-2-methyl-2-(3-(trifluoromethyl)phenylsulfonyl)propanamide] are 5.55 and 6.72.
Take `CC(C)(CNC(=O)c1cn2ccc(C(F)(F)F)cc2n1)S(=O)(=O)c1cccc(C(F)(F)F)c1` [Compound 505, N-(2-methyl-2-(3-(trifluoromethyl)phenylsulfonyl)propyl)-7-(trifluoromethyl)imidazo[1,2-a]pyridine-2-carboxamide]: the pIC50 in experiment [1] was 5.00; in experiment [2] it was 6.21.
Regarding `CC(C)(CCNC(=O)c1ccc(Oc2ccc(Cl)cc2)cc1)S(=O)(=O)c1cccc(C(F)(F)F)c1` [Compound 506, 4-(4-chlorophenoxy)-N-(3-methyl-3-(3-(trifluoromethyl)phenylsulfonyl)butyl) benzamide], the values for the negative logarithm of the IC50 (pIC50) in experiment [1] and in experiment [2] were 6.19 and 6.54, respectively.
The corresponding values for `CC(C)(CCNC(=O)c1cn2ccc(C(F)(F)F)cc2n1)S(=O)(=O)c1cccc(C(F)(F)F)c1` [Compound 507, N-(3-methyl-3-(3-(trifluoromethyl)phenylsulfonyl)butyl)-7-(trifluoromethyl)imidazo[1,2-a]pyridine-2-carboxamide] are 5.08 and 6.42.
For `CN(CCC(C)(C)S(=O)(=O)c1cccc(C(F)(F)F)c1)C(=O)c1ccc(F)c(C(F)(F)F)c1` [Compound 510, 4-fluoro-N-methyl-N-(3-methyl-3-(3-(trifluoromethyl)phenylsulfonyl)butyl)-3-(trifluoromethyl)benzamide], the pIC50 in experiment [1] is 5.23; in experiment [2] it was 6.77.
In the same order, the values of `COc1cc(C(=O)N(C)CCC(C)(C)S(=O)(=O)c2cccc(C(F)(F)F)c2)cc(Cl)n1` [Compound 512, 2-chloro-6-methoxy-N-methyl-N-(3-methyl-3-(3-(trifluoromethyl)phenylsulfonyl)butyl) isonicotinamide] are less than 5.00 and 6.48.
The corresponding values for `CN(CCC(C)(C)S(=O)(=O)c1cccc(C(F)(F)F)c1)C(=O)c1cc(C(F)(F)F)n[nH]1` [Compound 513, N-methyl-N-(3-methyl-3-(3-(trifluoromethyl)phenylsulfonyl)butyl)-3-(trifluoromethyl)-1H-pyrazole-5-carboxamide] are less than 5.00 and 6.31.
